Data taken from patent US20210196627A1, “SYSTEMS FOR ENTERIC DELIVERY OF THERAPEUTIC AGENTS” (Lyndra, Inc., priority 2018, published 2021).

Experiment: Memantine bioanalysis in plasma after duodenal placement of stellate system (LC-MS/MS)
Type: in vivo, beagle dogs
Excerpt: Six male beagle dogs (each weighing ˜10 kg) were anesthetized and intubated, and stellate-shaped systems bearing memantine drug arms were placed endoscopically through the pylorus into the duodenum. Each stellate system contained steel beads at the tips of the drug arms which facilitated X-ray imaging for confirming successful duodenal placement.
X-rays were collected daily to monitor residence time in the small intestine. Blood samples were collected through Day 10 of the study and processed to plasma for quantitation of memantine using an LC-MS/MS assay. The dogs were monitored for the duration of the study for safety.

- time for which sustained release of memantine was measurable (dog plasma, stellate system placed in duodenum, blood sampled through Day 10): 7 days
- Tmax (male, beagle, memantine in dog plasma, stellate system placed endoscopically in duodenum): 8 h
- exposure from the small intestine (memantine in dog plasma, stellate system placed in duodenum): good exposure
Structure (SMILES): CC12CC3CC(C)(C1)CC(N)(C3)C2 [memantine]
